This is an account of results in patent US9365588B2, “Benzoxazines as modulators of ion channels” (Vertex Pharmaceuticals Incorporated, priority 2011, dated 2016).

Molecules are shown by their SMILES. Bounds are passed on as bounds.

This assay deals with human NaV 1.7 (Homo sapiens, UniProt Q15858). Put plainly: E-VIPR optical membrane potential assay with electrical stimulation. The format is cell-based. The note with it: sodium channel inhibition; read-out: Binned Activity Data (IC50). The source says: Assays for Detecting and Measuring NaV Inhibition Properties of Compound E-VIPR Optical Membrane Potential Assay Method with Electrical Stimulation
Chain of human NaV 1.7 (Q15858 whole entry): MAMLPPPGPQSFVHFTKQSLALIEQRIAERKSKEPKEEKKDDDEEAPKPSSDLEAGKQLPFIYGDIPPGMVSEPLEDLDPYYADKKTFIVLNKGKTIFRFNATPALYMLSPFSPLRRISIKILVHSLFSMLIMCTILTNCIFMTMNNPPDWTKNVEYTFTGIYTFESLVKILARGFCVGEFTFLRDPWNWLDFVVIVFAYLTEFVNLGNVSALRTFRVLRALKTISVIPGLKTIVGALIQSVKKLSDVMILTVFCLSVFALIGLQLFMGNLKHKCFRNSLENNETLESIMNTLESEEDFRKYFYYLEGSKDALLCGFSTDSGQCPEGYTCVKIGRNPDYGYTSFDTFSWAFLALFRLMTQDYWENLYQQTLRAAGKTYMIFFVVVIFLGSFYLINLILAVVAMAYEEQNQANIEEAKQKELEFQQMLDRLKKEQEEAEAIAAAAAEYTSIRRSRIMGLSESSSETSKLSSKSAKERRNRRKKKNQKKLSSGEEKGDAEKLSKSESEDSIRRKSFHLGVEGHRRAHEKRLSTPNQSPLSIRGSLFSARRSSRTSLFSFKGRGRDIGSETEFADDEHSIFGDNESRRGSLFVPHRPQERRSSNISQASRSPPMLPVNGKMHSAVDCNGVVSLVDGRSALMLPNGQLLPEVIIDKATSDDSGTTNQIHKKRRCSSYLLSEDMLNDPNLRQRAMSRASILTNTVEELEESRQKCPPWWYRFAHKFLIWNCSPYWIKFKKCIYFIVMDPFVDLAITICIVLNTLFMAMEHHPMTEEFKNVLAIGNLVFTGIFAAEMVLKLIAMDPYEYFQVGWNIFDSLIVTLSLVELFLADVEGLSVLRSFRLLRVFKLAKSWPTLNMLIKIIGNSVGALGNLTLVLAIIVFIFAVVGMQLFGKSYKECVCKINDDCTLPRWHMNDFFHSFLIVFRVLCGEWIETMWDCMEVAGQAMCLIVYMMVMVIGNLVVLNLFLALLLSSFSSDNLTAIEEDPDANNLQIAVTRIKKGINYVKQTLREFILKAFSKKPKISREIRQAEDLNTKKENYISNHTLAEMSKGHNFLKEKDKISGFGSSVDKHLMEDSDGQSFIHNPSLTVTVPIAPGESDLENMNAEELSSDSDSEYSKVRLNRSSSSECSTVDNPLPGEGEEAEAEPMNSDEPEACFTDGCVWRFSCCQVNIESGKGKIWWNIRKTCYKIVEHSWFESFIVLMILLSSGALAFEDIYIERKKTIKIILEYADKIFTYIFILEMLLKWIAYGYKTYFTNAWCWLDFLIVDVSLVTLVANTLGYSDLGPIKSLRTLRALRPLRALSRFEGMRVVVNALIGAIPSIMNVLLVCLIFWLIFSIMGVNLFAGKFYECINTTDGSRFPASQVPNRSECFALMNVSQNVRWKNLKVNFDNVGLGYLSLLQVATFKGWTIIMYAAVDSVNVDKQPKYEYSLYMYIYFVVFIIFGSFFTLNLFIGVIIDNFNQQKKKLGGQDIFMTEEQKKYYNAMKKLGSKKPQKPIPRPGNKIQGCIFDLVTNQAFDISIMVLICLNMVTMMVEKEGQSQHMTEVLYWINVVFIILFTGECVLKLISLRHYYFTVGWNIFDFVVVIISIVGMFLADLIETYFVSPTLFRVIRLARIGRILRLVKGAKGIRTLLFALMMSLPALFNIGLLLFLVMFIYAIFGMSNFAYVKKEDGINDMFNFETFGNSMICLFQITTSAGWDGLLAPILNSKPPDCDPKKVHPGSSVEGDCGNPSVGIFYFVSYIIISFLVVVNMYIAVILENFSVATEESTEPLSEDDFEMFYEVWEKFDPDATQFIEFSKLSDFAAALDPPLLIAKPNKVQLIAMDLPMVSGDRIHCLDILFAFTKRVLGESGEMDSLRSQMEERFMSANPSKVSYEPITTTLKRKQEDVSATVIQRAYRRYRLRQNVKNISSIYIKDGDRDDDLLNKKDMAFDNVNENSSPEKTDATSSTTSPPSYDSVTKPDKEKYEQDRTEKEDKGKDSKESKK
Sodium channels are voltage-dependent proteins that can be activated by inducing membrane voltage changes by applying electric fields. The electrical stimulation instrument and methods of use are described in Ion Channel Assay Methods PCT/US01/21652, herein incorporated by reference and are referred to as E-VIPR. The instrument comprises a microtiter plate handler, an optical system for exciting the coumarin dye while simultaneously recording the coumarin and oxonol emissions, a waveform generator, a current- or voltage-controlled amplifier, and a device for inserting electrodes in well. Under integrated computer control, this instrument passes user-programmed electrical stimulus protocols to cells within the wells of the microtiter plate.
24 hours before the assay on E-VIPR, HEK cells expressing human NaV subtype, like NaV 1.7, are seeded in 384-well poly-lysine coated plates at 15,000-20,000 cells per well. Other subtypes are performed in an analogous mode in a cell line expressing the NaV of interest. HEK cells are grown in media (exact composition is specific to each cell type and NaV subtype) supplemented with 10% FBS (Fetal Bovine Serum, qualified; GibcoBRL #16140-071) and 1% Pen-Strep (Penicillin-Streptomycin; GibcoBRL #15140-122). Cells are grown in vented cap flasks, in 90% humidity and 10% CO2, to 100% confluence. They are usually split by trypsinization 1:10 or 1:20, depending on scheduling needs, and grown for 2-3 days before the next split.
Bath1 buffer. Glucose 10 mM (1.8 g/L), Magnesium Chloride (Anhydrous), 1 mM (0.095 g/L), Calcium Chloride, 2 mM (0.222 g/L), HEPES 10 mM (2.38 g/L), Potassium Chloride, 4.5 mM (0.335 g/L), Sodium Chloride 160 mM (9.35 g/L).
Hexyl Dye Solution: Bath1 Buffer+0.5% β-cyclodextrin (make this prior to use, Sigma #C4767), 8 μM CC2-DMPE+2.5 μM DiSBAC6(3). To make the solution Add volume of 10% Pluronic F127 stock equal to volumes of CC2-DMPE+DiSBAC6(3). The order of preparation is first mix Pluronic and CC2-DMPE, then add DiSBAC6(3) while vortexing, then add Bath1+β-Cyclodextrin.
1) Pre-spot compounds (in neat DMSO) into compound plates. Vehicle control (neat DMSO), the positive control (20 mM DMSO stock tetracaine, 125 μM final in assay) and test compounds are added to each well at 160× desired final concentration in neat DMSO. Final compound plate volume will be 80 μL (80-fold intermediate dilution from 1 μL DMSO spot; 160-fold final dilution after transfer to cell plate). Final DMSO concentration for all wells in assay is 0.625%.
2) Prepare Hexyl Dye Solution.
3) Prepare cell plates. On the day of the assay, medium is aspirated and cells are washed three times with 100 μL of Bath1 Solution, maintaining 25 μL residual volume in each well.
4) Dispense 25 μL per well of Hexyl Dye Solution into cell plates. Incubate for 20-35 minutes at room temp or ambient conditions.
5) Dispense 80 μL per well of Bath1 into compound plates. Acid Yellow-17 (1 mM) is added and Potassium Chloride can be altered from 4.5 to 20 mM depending on the NaV subtype and assay sensitivity.
6) Wash cell plates three times with 100 μL per well of Bath1, leaving 25 μL of residual volume. Then transfer 25 uL per well from Compound Plates to Cell Plates. Incubate for 20-35 minutes at room temp/ambient condition
7) Read Plate on E-VIPR. Use the current-controlled amplifier to deliver stimulation wave pulses for typically 9 seconds and a scan rate of 400 Hz. A pre-stimulus recording is performed for 0.5 seconds to obtain the un-stimulated intensities baseline. The stimulatory waveform is applied for 9 seconds followed by 0.5 seconds of post-stimulation recording to examine the relaxation to the resting state. […]
In general, IC50 refers to the concentration that inhibits the measured activity by half. `COc1cc(C(=O)N2CCC3(CC2)Oc2cc(Cl)ccc2-n2cccc23)ccc1F` [Compound 63]: the IC50 was ≤ 2 µM. The value for `CC(C)C(O)c1ccc(C(=O)N2CCC3(CC2)Oc2ccccc2-n2c(C#N)ccc23)cc1` (centres unmarked) [Compound 65] was ≤ 2 µM.

Take `CC(C)Oc1ccc(C(=O)N2CCC3(CC2)Oc2ccccc2-c2c3cnn2C)cc1CO` [Compound 66]: the IC50 is ≤ 2 µM. Turning to `Cc1cc(C(=O)N2CCC3(CC2)Oc2ccccc2-c2c3cnn2C)ccc1S(=O)(=O)C(C)(C)C` [Compound 67], the IC50 is ≤ 2 µM. As for `CCCOc1ccc(C(=O)N2CCC3(CC2)Oc2ccccc2-n2cccc23)cc1C(F)(F)F` [Compound 69], the figure is ≤ 2 µM; as for `CC(C)Oc1ccc(C(=O)N2CCC3(CC2)Oc2ccccc2-n2c3ccc2S(C)(=O)=O)c(F)c1` [Compound 70], ≤ 2 µM.

Consider `Cc1cc(C(=O)N2CCC3(CC2)Oc2cc(F)ccc2-n2cccc23)ccc1OCC1CCCO1` (centres unmarked) [Compound 74], for which the IC50 is ≤ 2 µM. As for `Cc1cc(C(=O)N2CCC3(CC2)Oc2ccccc2-n2c(C#N)ccc23)ccc1O` [Compound 76], the figure is ≤ 2 µM; as for `CC(C)(C)S(=O)(=O)c1ccc(C(=O)N2CCC3(CC2)Oc2ccccc2-c2nn(C(F)(F)F)cc23)cc1` [Compound 78], ≤ 2 µM. As for `COc1ccc(Cl)cc1C(=O)N1CCC2(CC1)Oc1ccccc1-c1c2cnn1C` [Compound 80], the figure is > 5 µM; as for `COc1ccccc1C(=O)N1CCC2(CC1)Oc1cc(Cl)ccc1-n1cccc12` [Compound 81], ≤ 2 µM. As for `COCCn1ncc2c1-c1ccccc1OC21CCN(C(=O)c2ccc(C(C)(C)C)c(OC)c2)CC1` [Compound 82], the figure is ≤ 2 µM; as for `COCCCOc1ccc(C(=O)N2CCC3(CC2)Oc2ccccc2-n2cccc23)cc1OC` [Compound 83], ≤ 2 µM.

Regarding `Cc1cc(OC(F)(F)F)ccc1C(=O)N1CCC2(CC1)Oc1ccccc1-c1c2cnn1C` [Compound 84], the half-maximal inhibitory concentration (IC50) was 2 to 5 µM. As for `Cn1ncc2c1-c1ccccc1OC21CCN(C(=O)c2ccc(=O)n(C)c2)CC1` [Compound 87], the figure is > 5 µM. As for `COc1cc(C(=O)N2CCC3(CC2)Oc2cc(Cl)ccc2-n2cccc23)ccc1OC[C@H](O)CO` [Compound 90], the figure is ≤ 2 µM; as for `Cc1nc2c(C(=O)N3CCC4(CC3)Oc3ccccc3-c3c4cnn3C)cccc2[nH]1` [Compound 92], 2 to 5 µM; as for `COc1cc(S(C)(=O)=O)ccc1C(=O)N1CCC2(CC1)Oc1ccccc1-c1c2cnn1C` [Compound 93], 2 to 5 µM. As for `COc1cc(OC(C)(C)C)ccc1C(=O)N1CCC2(CC1)Oc1ccccc1-c1c2cnn1C` [Compound 94], the figure is ≤ 2 µM; as for `COC[C@H](C)Oc1ccc(C(=O)N2CCC3(CC2)Oc2ccccc2-n2cccc23)cc1C(F)(F)F` [Compound 95], ≤ 2 µM; as for `COc1cc(C(=O)N2CCC3(CC2)Oc2ccccc2-n2cccc23)ccc1OCCO` [Compound 97], ≤ 2 µM. Turning to `CCOc1cc(C(=O)N2CCC3(CC2)Oc2ccccc2-c2nn(C)cc23)ccc1OC` [Compound 98], the IC50 is ≤ 2 µM. `Cn1ncc2c1-c1ccccc1OC21CCN(C(=O)c2cccn3ccnc23)CC1` [Compound 99]: the IC50 is ≤ 2 µM. The value for `COC(=O)c1c(OC)cccc1C(=O)N1CCC2(CC1)Oc1ccccc1-n1c(C#N)ccc12` [Compound 101] was ≤ 2 µM; that for `Cn1ncc2c1-c1ccccc1OC21CCN(C(=O)c2ccccc2O)CC1` [Compound 102] was > 5 µM; that for `CC(C)(CO)c1ccc(C(=O)N2CCC3(CC2)Oc2cc(Cl)ccc2-n2cccc23)cc1F` [Compound 103] was ≤ 2 µM. The value for `Cn1ncc2c1-c1ccccc1OC21CCN(C(=O)c2ccc(N3CCCCC3)nc2)CC1` [Compound 104] was > 5 µM; that for `Cc1ccc(C(=O)N2CCC3(CC2)Oc2cc(Cl)ccc2-n2cccc23)cc1C` [Compound 105] was ≤ 2 µM. Turning to `CC(C)(CO)c1ccc(C(=O)N2CCC3(CC2)Oc2cc(Cl)ccc2-n2cccc23)cc1` [Compound 106], the IC50 was ≤ 2 µM.
